Test results published in ChEMBL document CHEMBL1135307, “Novel diamide-based inhibitors of IMPDH” (Bioorg Med Chem Lett, 2002).
pIC50: −log10 of the molar value.

Target: Inosine-5'-monophosphate dehydrogenase 2 (Homo sapiens, UniProt P12268)
Assay: Inhibition of human Inosine-5'-monophosphate dehydrogenase 2

| pIC50 | Compound |
| --- | --- |
| 7.72 | COc1cc(NC(=O)C(=O)NC(C)(C)CO)ccc1-c1cnco1 |
| < 5.00 | COc1cc(NC(=O)C(=O)NC(C)(C)C(=O)O)ccc1-c1cnco1 |
| < 5.00 | COc1cc(NC(=O)C(=O)NNc2ccccc2)ccc1-c1cnco1 |
| < 5.00 | COc1cc(NC(=O)C(=O)NC(C)C)ccc1-c1cnco1 |
| < 5.00 | COc1cc(NC(=O)C(=O)N(C)C(C)(C)C)ccc1-c1cnco1 |
| 7.74 | COc1cc(NC(=O)C(=O)NC2(CO)CCCC2)ccc1-c1cnco1 |
| < 5.00 | CCCNC(=O)C(=O)Nc1ccc(-c2cnco2)c(OC)c1 |
| 7.28 | COc1cc(NC(=O)C(=O)Nc2ccccc2)ccc1-c1cnco1 |
| < 5.00 | COc1cc(NC(=O)C(=O)NC2CCCCC2)ccc1-c1cnco1 |
| 7.13 | COC(=O)C(C)(C)NC(=O)C(=O)Nc1ccc(-c2cnco2)c(OC)c1 |
| 7.33 | COc1cc(NC(=O)C(=O)NC(C)(C)CN(C)C)ccc1-c1cnco1 |

Further lines, the compound ahead of its results:

| Compound | pIC50 |
| --- | --- |
| CC(C)(C)NC(=O)C(=O)Nc1ccc(-c2cnco2)cc1 | < 5.00 |
| CC(C)(C)NC(=O)C(=O)Nc1ccc(-c2cnco2)c(Br)c1 | 7.30 |
| COc1cc(NC(=O)CC(=O)Nc2ccccc2)ccc1-c1cnco1 | 6.40 |
| COc1cc(NC(=O)C(=O)Nc2cccc(CNC(=O)O[C@@H]3CCOC3)c2)ccc1-c1cnco1 | 7.52 |
| COc1cc(NC(=O)C(=O)NC(C)(C)C)ccc1-c1cnco1 | 8.00 |
| COc1cc(NC(=O)CC(=O)Nc2cccc(C)c2)ccc1-c1cnco1 | 6.36 |
| Cc1ncoc1-c1ccc(NC(=O)C(=O)NC(C)(C)C)cc1 | < 5.00 |
| CC(C)(C)NC(=O)C(=O)Nc1ccc(-c2cnco2)c(Cl)c1 | 7.26 |
| COc1cc(NC(=O)C(=O)N(C)c2ccccc2)ccc1-c1cnco1 | < 5.00 |
| COc1cc(NC(=O)C(=O)NCc2ccccc2)ccc1-c1cnco1 | < 5.00 |
